This is an account of results in US8647610B2, “Use of melanin biosynthesis inhibitors from korean ginseng and the cosmetic composition containing thereof for skin whitening” (Amorepacific Corporation, priority 2007, dated 2014).

The test system of experiment [1] is Mouse melanocytes (Mel-Ab cells). Kind of experiment: Melanin production inhibitory effect using mouse melanocytes (Dooley method). The format is cell-based. The conditions noted are these: 10 ppm of test substance for 3 days, absorbance at 400 nm.
The test system of the next experiment is human skin. Kind of experiment: Whitening effect on human skin after UVB-induced blackness. Type of experiment: in vivo. To be noted: 10 weeks, colorimeter. The text has this: An opaque tape having a perforated hole of a 1.5 cm-diameter was attached to the upper arm of each of 12 healthy men. Then, UV rays (UVB) were irradiated to each of the subjects at a dose 1.5-2 times higher than the minimal erythema dose, thus inducing skin's blackness.
After the UV irradiation, a 1 wt % solution of each of the test samples (1,3-butyleneglycol: ethanol=7:3, as a vehicle) was applied to the skin of each subject. As negative and positive control groups, a 3 wt % solution of each of […] was applied to the skin of each subject. […] The skin color was measured with a colorimeter (Minolta, Japan) at a 1-week interval. Then, the difference (ΔL*) in skin color between the time point of application and the time point of completion of application of each sample was calculated according to the following equation 2, and the calculation results are shown in Table 2 below. Meanwhile, the whitening effect of each sample was evaluated by comparing ΔL* between the site applied with each sample and the control site.

[2] abbreviates: 1 wt % solution in 1,3-butyleneglycol:ethanol=7:3 applied to UVB-irradiated upper arm of 12 healthy men.

On to “20-O-β-D-glucopyranosyl-20(S)-protopanaxatriol [Example 2]”, for which the “Melanin production inhibitory rate (%)” value in experiment [1] came to 33.6%. Also, in the experiment on human skin (setting [2]), the “Lightless (ΔL*) of skin color” value is on record as 1.67 ± 0.17.
In the case of “20-O-β-D-glucopyranosyl-20(S)-protopanaxatriol [Example 3]”, in experiment [1], the “Melanin production inhibitory rate (%)” value is 34.2%. In addition, the “Lightless (ΔL*) of skin color” value in the experiment on human skin (setting [2]) was determined as 1.71 ± 0.13.
Regarding `O=c1cc(CO)occ1O` [Kojic acid, reference compound], the inhibition at 10 ppm in experiment [1] (Mus musculus, 72 h, read-out: Melanin production inhibitory rate (%)) was 30.5%. The “Lightless (ΔL*) of skin color” value in the experiment on human skin (3 wt % solution (positive control) applied to UVB-irradiated upper arm of 12 healthy men) stood at 1.56 ± 0.11.
Consider “20-O-β-D-glucopyranosyl-20(S)-protopanaxatriol [Example 4]”, for which the “Melanin production inhibitory rate (%)” value in experiment [1] is 34.9%. Moreover, in the experiment with human skin (setting [2]), the “Lightless (ΔL*) of skin color” value is listed as 1.64 ± 0.21.
The corresponding values for “20-O-β-D-glucopyranosyl-20(S)-protopanaxatriol [Example 1]” are 35.1% and 1.60 ± 0.13.
With “20-O-β-D-glucopyranosyl-20(S)-protopanaxatriol [ginsenoside F1]”, the “Lightless (ΔL*) of skin color” value in the experiment with human skin (setting [2]) is listed as “higher than 1.6”.
